These results are taken from ChEMBL document CHEMBL1123529, “Analogues of substance P. Peptides containing D-amino acid residues in various positions of substance P and displaying agonist or receptor selective antagonist effects” (1986).

The experiment deals with Substance-P receptor (Cavia porcellus) (UniProt P30547). Nature of the experiment: Evaluated in vitro for percent agonist activity in guinea pig ileum (substance P receptor). The format is functional, tissue-based.
Sequence of Substance-P receptor (Cavia porcellus) (P30547 whole entry): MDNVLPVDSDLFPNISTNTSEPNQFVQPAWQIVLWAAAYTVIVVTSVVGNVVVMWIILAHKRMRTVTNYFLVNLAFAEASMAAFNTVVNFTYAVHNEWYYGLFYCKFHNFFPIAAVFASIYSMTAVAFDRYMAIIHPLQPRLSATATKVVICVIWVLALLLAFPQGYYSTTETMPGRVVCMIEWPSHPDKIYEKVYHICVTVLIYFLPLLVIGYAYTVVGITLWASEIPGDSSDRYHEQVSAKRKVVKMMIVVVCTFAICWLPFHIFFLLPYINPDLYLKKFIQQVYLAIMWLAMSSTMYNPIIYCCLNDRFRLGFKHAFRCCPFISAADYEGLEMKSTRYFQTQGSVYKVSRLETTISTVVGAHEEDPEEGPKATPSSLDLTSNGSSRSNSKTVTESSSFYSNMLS
The molecule `CSCC[C@@H](NC(=O)[C@H](CC(C)C)NC(=O)CNC(=O)[C@H](Cc1ccccc1)NC(=O)[C@H](Cc1ccccc1)NC(=O)[C@@H](NC(=O)[C@H](NC(=O)[C@@H]1CCCN1C(=O)[C@H](CCCCNC(=O)OCc1ccccc1)NC(=O)[C@@H]1CCCN1C(=O)[C@H](CCCN=C(N)N)NC(=O)OCc1ccccc1)C(C)C)C(C)C)C(=O)O` gave an SP of under 0.0001%.

`COC(=O)[C@@H](CCSC)NC(=O)[C@H](CC(C)C)NC(=O)CNC(=O)[C@H](Cc1ccccc1)NC(=O)[C@H](Cc1ccccc1)NC(=O)[C@H](Cc1ccccc1)NC(=O)[C@@H](Cc1ccccc1)NC(=O)[C@@H]1CCCN1C(=O)[C@H](CCCCNC(=O)OCc1ccccc1)NC(=O)[C@@H]1CCCN1C(=O)[C@H](CCCN=C(N)N)NC(=O)OCc1ccccc1` yielded an SP of under 0.0001%.

The molecule `COC(=O)[C@@H](CCSC)NC(=O)[C@H](CC(C)C)NC(=O)CNC(=O)[C@@H](NC(=O)[C@H](NC(=O)[C@H](CCC(N)=O)NC(=O)[C@H](CCC(N)=O)NC(=O)[C@@H]1CCCN1C(=O)[C@H](CCCCNC(=O)OCc1ccccc1)NC(=O)[C@@H]1CCCN1C(=O)[C@H](CCCN=C(N)N)NC(=O)OCc1ccccc1)C(C)C)C(C)C` yielded an SP of under 0.0001%.

`COC(=O)[C@@H](CCSC)NC(=O)[C@H](CC(C)C)NC(=O)CNC(=O)[C@H](Cc1ccccc1)NC(=O)[C@H](Cc1ccccc1)NC(=O)[C@@H]1CCCN1C(=O)[C@H]1CCCN1C(=O)[C@@H]1CCCN1C(=O)[C@H](CCCCN)NC(=O)[C@@H]1CCCN1C(=O)[C@@H](N)CCCN=C(N)N` yielded an SP of 0.066%.

The molecule `COC(=O)[C@H](CCSC)NC(=O)[C@H](CC(C)C)NC(=O)CNC(=O)[C@H](Cc1ccccc1)NC(=O)[C@H](Cc1ccccc1)NC(=O)[C@H](CCC(N)=O)NC(=O)[C@H](CCC(N)=O)NC(=O)C1CCCN1C(=O)[C@H](CCCCNC(=O)OCc1ccccc1)NC(=O)C1CCCN1C(=O)[C@H](CCCN=C(N)N)NC(=O)OCc1ccccc1` (stereo in doubt) returned an SP of 7%.

Regarding `CSCC[C@H](NC(=O)[C@H](CC(C)C)NC(=O)CNC(=O)[C@H](Cc1ccccc1)NC(=O)[C@H](Cc1ccccc1)NC(=O)[C@H](CCC(N)=O)NC(=O)[C@H](CCC(N)=O)NC(=O)C1CCCN1C(=O)[C@H](CCCCN)NC(=O)C1CCCN1C(=O)[C@@H](N)CCCN=C(N)N)C(N)=O` (stereo in doubt), the SP stood at 15%.

As for `CSCC[C@@H](NC(=O)[C@H](CC(C)C)NC(=O)CNC(=O)[C@H](Cc1ccccc1)NC(=O)[C@H](Cc1ccccc1)NC(=O)[C@@H](NC(=O)[C@H](NC(=O)[C@@H]1CCCN1C(=O)[C@H](CCCCN)NC(=O)[C@@H]1CCCN1C(=O)[C@@H](N)CCCN=C(N)N)C(C)C)C(C)C)C(=O)O`, the SP is 6.4%.

As for `COC(=O)[C@@H](CCSC)NC(=O)[C@H](CC(C)C)NC(=O)CNC(=O)[C@H](Cc1ccccc1)NC(=O)[C@H](Cc1ccccc1)NC(=O)[C@@H](NC(=O)[C@H](NC(=O)[C@@H]1CCCN1C(=O)[C@H](CCCCN)NC(=O)[C@@H]1CCCN1C(=O)[C@@H](N)CCCN=C(N)N)C(C)C)C(C)C`, the SP is 0.005%.

Regarding `COC(=O)[C@@H](CCSC)NC(=O)[C@H](CC(C)C)NC(=O)CNC(=O)[C@H](Cc1ccccc1)NC(=O)[C@H](Cc1ccccc1)NC(=O)[C@H](Cc1ccccc1)NC(=O)[C@@H](Cc1ccccc1)NC(=O)[C@@H]1CCCN1C(=O)[C@H](CCCCN)NC(=O)[C@@H]1CCCN1C(=O)[C@@H](N)CCCN=C(N)N`, the SP worked out at 0%.

For `CSCC[C@H](NC(=O)[C@H](CC(C)C)NC(=O)CNC(=O)[C@H](Cc1ccccc1)NC(=O)[C@H](Cc1ccccc1)NC(=O)[C@H](CCC(N)=O)NC(=O)[C@H](CCC(N)=O)NC(=O)C1CCCN1C(=O)[C@H](CCCCNC(=O)OCc1ccccc1)NC(=O)C1CCCN1C(=O)[C@H](CCCN=C(N)N)NC(=O)OCc1ccccc1)C(=O)O` (stereo in doubt), the SP was 63%.
